Assay results as given in ChEMBL document CHEMBL5058564, “EUbOPEN Chemogenomics Library 2 (Incucyte)” (2022).

What was measured:
Type in all cases: toxicity, cell-based
[1] = system: Fibroblast; test: Incucyte cell viability with human fibroblast; settings: 10 µM, compound concentration 10 uM
[2] = system: U2OS; test: Incucyte cell viability with U2OS; settings: human, 10 µM, compound concentration 10 uM
[3] = system: HEK-293T; test: Incucyte cell viability with HEK293T; settings: human, 10 µM, compound concentration 10 uM
[4] = 0 h, replicate number 1, timepoint 0 hours
[5] = 0 h, replicate number 2, timepoint 0 hours
[6] = 6 h, replicate number 1, timepoint 6 hours
[7] = 6 h, replicate number 2, timepoint 6 hours
[8] = 12 h, replicate number 1, timepoint 12 hours
[9] = 12 h, replicate number 2, timepoint 12 hours
[10] = 18 h, replicate number 1, timepoint 18 hours
[11] = 18 h, replicate number 2, timepoint 18 hours
[12] = 24 h, replicate number 1, timepoint 24 hours
[13] = 24 h, replicate number 2, timepoint 24 hours
Further: unitless GR value; below 1 slowed growth and below 0 cell loss.

Row | SMILES | Growth Rate [1, 4] | Growth Rate [1, 5] | Growth Rate [1, 6] | Growth Rate [1, 8] | Growth Rate [1, 10] | Growth Rate [1, 12] | Growth Rate [2, 5] | Growth Rate [2, 6] | Growth Rate [2, 7] | Growth Rate [2, 9] | Growth Rate [2, 10] | Growth Rate [2, 11] | Growth Rate [2, 12] | Growth Rate [2, 13] | Growth Rate [3, 5] | Growth Rate [3, 6] | Growth Rate [3, 8] | Growth Rate [3, 9] | Growth Rate [3, 10] | Growth Rate [3, 12] | also measured
1 | O=C1NC(=Nc2c(Cl)cccc2Cl)S/C1=C\c1ccc2nccnc2c1 | 0.9 | 0.72 | 0.24 | 0.09 | 0.4 | 0.39 | -0.91 | 0 | 0.81 | 0.54 | 0.55 | 0.57 | 0.63 | 0.59 | 0.37 | 0.34 | 0.15 | -0.06 | 0.07 | 0.26 | Growth Rate [1, 7]: 0.79; Growth Rate [1, 9]: 0.32; Growth Rate [1, 11]: 0.61; Growth Rate [1, 13]: 0.48; Growth Rate [2, 8]: 0.33; Growth Rate [3, 4]: 0.36; Growth Rate [3, 7]: 0.18; Growth Rate [3, 11]: 0.05; Growth Rate [3, 13]: 0.15
2 | Cc1cc(CN)cc(C)c1-c1ncn(C)c1-c1ccnc2cc(F)ccc12 |  | 0.5 | 0.31 | 0.5 | 0.18 | 0.09 | -0.67 | 0.54 | 0.18 | 0.55 | 0.92 | 0.73 | 0.79 |  | 0.31 | 0.86 | 0.93 | 0.96 | 0.79 | 0.87 | Growth Rate [1, 9]: 0.83; Growth Rate [1, 11]: 0.64; Growth Rate [1, 13]: 0.58; Growth Rate [2, 4]: -0.16; Growth Rate [2, 8]: 0.64; Growth Rate [3, 7]: 0.7; Growth Rate [3, 11]: 0.92; Growth Rate [3, 13]: 0.92
3 | CCCN1CCC[C@@H]2Cc3n[nH]cc3C[C@H]21.Cl [QUINPIROLE HYDROCHLORIDE] | -0.18 | 0.29 | 0.59 | 0.29 | 0.54 |  |  | -0.04 | 0.9 | 0.66 | 0.9 | 0.96 | 0.88 | 0.96 | 0.26 | 0.41 |  |  |  |  | 
4 | Cl.Cl.OCCOCCN1CCN(C(c2ccccc2)c2ccc(Cl)cc2)CC1 (centres undefined) [HYDROXYZINE HYDROCHLORIDE] |  | 0.31 | 0.49 | 0.82 | 0.88 | 0.77 | -1 | 0.46 |  |  |  |  |  |  |  | 0.77 | 0.52 | 0.45 | 0.19 | 0.04 | Growth Rate [3, 7]: 0.15; Growth Rate [3, 11]: 0.39; Growth Rate [3, 13]: 0.32
5 | Cc1ccc(/C(=C\CN2CCCC2)c2ccccn2)cc1 [TRIPROLIDINE] | 0.54 | 0.74 | 0.96 |  | 0.98 | 0.88 |  | -0.54 | 0.77 | 0.88 | 0.76 | 0.96 | 0.83 | 0.94 |  |  |  |  |  |  | Growth Rate [2, 8]: 0.38; Growth Rate [3, 7]: 0.8
6 | COC[C@@H](c1ccc(C(F)(F)F)cc1)N1CCN(C2(C)CCN(C(=O)c3c(C)ncnc3C)CC2)C[C@@H]1C.O=C(O)/C=C\C(=O)O [VICRIVIROC MALEATE] |  |  | -0.4 | 0.17 | 0.48 | 0.67 | -0.31 | 0.58 |  | 0.98 | 0.7 | 0.98 | 0.8 | 0.97 | -1 |  | 0.66 |  | 0.49 | 0.39 | Growth Rate [1, 7]: 0.52; Growth Rate [1, 9]: 0.68; Growth Rate [1, 11]: 0.79; Growth Rate [1, 13]: 0.83; Growth Rate [2, 4]: -0.67; Growth Rate [2, 8]: 0.57; Growth Rate [3, 4]: 0.38
7 | Br.Br.N=C(N)NCCSC(=N)N |  | 0.9 | 0.23 | 0.19 | 0.54 | 0.49 | 0.56 |  | 0.98 | 0.99 | 0.96 |  | 0.37 |  |  | 0.74 | 0.76 | 0.86 | 0.98 | 1 | Growth Rate [1, 7]: 0.98; Growth Rate [2, 4]: -0.2; Growth Rate [2, 8]: 0.88; Growth Rate [3, 11]: 0.92; Growth Rate [3, 13]: 0.81
8 | CCc1ccccc1C(=O)Nc1n[nH]c2c(C)c(F)c(C3C(C#N)=C(C)N(C)C(C)=C3C#N)cc12 [BAY-3827] | 0.51 | -0.4 | 0.12 | 0.64 | 0.79 | 0.56 | 0.74 |  |  |  |  |  |  | 0.87 | -1 | 0.43 | 0.35 |  | 0.5 | 0.55 | 
9 | CC1(C)SSC(C)(C)[C@@H](NC(=O)[C@@H](N)Cc2ccc(O)cc2)C(=O)NCC(=O)N[C@@H](Cc2ccccc2)C(=O)N[C@H]1C(=O)O.O=C(O)C(F)(F)F | 0.24 | 0.08 | 0.67 |  |  | 0.94 | -0.57 |  | 0.94 |  |  | 0.98 |  | 0.94 |  | 0.73 |  | 0.85 | 0.85 |  | Growth Rate [3, 4]: 0.77
10 | O=C(O)c1ccccc1S(=O)(=O)NCCCCN1C(=O)c2cccc3cccc(c23)C1=O | 0.28 | 0.58 |  |  | 0.79 |  | -0.33 | 0.57 | 0.12 | 0.64 | 0.78 | 0.75 | 0.67 | 0.75 | 0.31 |  | 0.9 | 0.98 | 0.82 | 0.91 | Growth Rate [1, 7]: 0.71; Growth Rate [1, 9]: 0.94; Growth Rate [2, 4]: 0.34; Growth Rate [2, 8]: 0.82; Growth Rate [3, 4]: 0.54; Growth Rate [3, 11]: 0.89
11 | O=C(O)CCC/C=C\CC1C(O)CC(O)C1/C=C/C(O)COc1cccc(Cl)c1 (centres undefined) [CLOPROSTENOL] |  | 0.34 | -0.06 | 0.25 | 0.2 | 0.18 | -0.99 |  | 0.74 |  | 0.7 |  |  |  | 0.63 | 0.34 | 0.74 |  | 0.75 | 0.95 | Growth Rate [2, 4]: -0.27; Growth Rate [3, 7]: 0.93; Growth Rate [3, 11]: 0.99
12 | CC(C)N(CCCCOCC(=O)NS(C)(=O)=O)c1cnc(-c2ccccc2)c(-c2ccccc2)n1 [SELEXIPAG] | 0.56 | 0.34 | 0.5 | 0.75 | 0.76 | 0.48 | -1 | 0.41 |  | 0.8 | 0.99 | 0.98 | 1 |  | 0.73 |  | 0.89 | 0.73 |  |  | Growth Rate [2, 4]: 0.21; Growth Rate [3, 4]: 0.99; Growth Rate [3, 7]: 0.76
13 | CC(C)c1c(NC(=O)Nc2ccc(Cl)cc2)c(=O)n(-c2ccccc2)n1C | 0.29 | 0.39 | 0.31 | 0.35 | 0.76 | 0.69 | -0.97 |  |  |  |  |  |  |  | 0.92 |  | 0.65 | 0.96 | 0.55 | 0.53 | Growth Rate [1, 9]: 0.54; Growth Rate [1, 11]: 0.54; Growth Rate [1, 13]: 0.44; Growth Rate [2, 4]: -0.9; Growth Rate [3, 7]: 0.74; Growth Rate [3, 13]: 0.96
